US10597367B2, “Metabotropic glutamate receptor negative allosteric modulators (NAMs) and uses thereof” (Sanford Burnham Prebys Medical Discovery Institute, priority 2014, dated 2020)

Experiments:
[1] = Microsomal stability in vitro assay; type: in vitro ADME; settings: pooled rat liver microsomes, 4 μM compound, NADPH
Protocol: Pooled rat liver microsomes (BD Biosciences, #452701) were preincubated with test compounds at 37.5° C. for 5 min in the absence of NADPH. The reaction was initiated by addition of NADPH and incubated under the same conditions. The final incubation concentrations were 4 μM test compound, 2 mM NADPH, and 1 mg/mL (total protein) liver microsomes in phosphate-buffered saline (PBS) at pH 7.4. One aliquot (100 μL) of the incubation mixture was withdrawn at 15 min time points and combined immediately with 100 μL of ACN/MeOH. After mixing, the sample was centrifuged at approximately 13000 rpm for 12 min. The supernatant was filtered and transferred into an autosampler vial and the amount of test compound was quantified using a Shimadzu LCMS 2010EV mass spectrometer. The change of the AUC (area under the curve) of the parent compound as a function of time was used as a measure of microsomal stability. Test compounds were run in duplicate with a positive control.

[2] = Plasma stability in vitro assay; type: in vitro ADME; settings: heparinized rat plasma, 100 μM, 37.5° C.
Protocol: A 20 μL aliquot of a 10 mM solution in DMSO of the test compound was added to 2.0 mL of heparinized rat plasma (Lampire, P1-150N) to obtain a 100 μM final solution. The mixture was incubated for 1 h at 37.5° C. Aliquots of 100 μL were taken at 15 min intervals and diluted with 100 μL of MeOH/ACN. After mixing, the sample was centrifuged at approximately 13000 rpm for 12 min. The supernatant was filtered and transferred into an autosampler vial and the amount of test compound was quantified using the Shimadzu LCMS-2010EV system. The change of the AUC of the parent compound in function of time was used as a measure of plasma stability.

mGlu2 receptor = mGlu2 receptor (Rattus norvegicus (Rat), UniProt P31421); assay: mGlu2 in vitro GIRK thallium flux assay; type: cell-based; settings: read-out: mGlu2 EC50 (μM) (60 min); NAM; test compound incubated 60 min before EC80 glutamate; HEK-293 GIRK cells
mGlu2 receptor, sequence (P31421 19-872): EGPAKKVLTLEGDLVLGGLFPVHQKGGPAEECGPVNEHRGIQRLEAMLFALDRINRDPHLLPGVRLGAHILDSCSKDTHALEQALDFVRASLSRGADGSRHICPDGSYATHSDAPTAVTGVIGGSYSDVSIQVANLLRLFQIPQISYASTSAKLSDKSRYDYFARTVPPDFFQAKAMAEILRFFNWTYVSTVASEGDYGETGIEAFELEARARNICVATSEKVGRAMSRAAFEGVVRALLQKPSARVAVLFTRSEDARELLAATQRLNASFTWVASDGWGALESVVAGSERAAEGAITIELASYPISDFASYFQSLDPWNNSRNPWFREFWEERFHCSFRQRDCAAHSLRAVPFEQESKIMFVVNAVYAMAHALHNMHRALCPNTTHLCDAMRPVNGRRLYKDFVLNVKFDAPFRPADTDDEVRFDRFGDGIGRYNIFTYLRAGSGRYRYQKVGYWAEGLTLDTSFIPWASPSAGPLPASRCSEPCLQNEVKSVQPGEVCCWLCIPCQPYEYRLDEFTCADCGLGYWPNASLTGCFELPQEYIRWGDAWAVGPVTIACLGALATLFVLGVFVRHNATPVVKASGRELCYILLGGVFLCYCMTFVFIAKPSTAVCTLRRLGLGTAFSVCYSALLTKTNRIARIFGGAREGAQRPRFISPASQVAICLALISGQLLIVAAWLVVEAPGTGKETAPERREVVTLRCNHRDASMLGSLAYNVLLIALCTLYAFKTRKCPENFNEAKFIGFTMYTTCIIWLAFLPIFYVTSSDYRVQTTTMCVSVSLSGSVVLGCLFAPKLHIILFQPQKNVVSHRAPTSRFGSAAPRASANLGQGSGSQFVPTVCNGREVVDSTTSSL
Protocol: All cell culture reagents were purchased from Invitrogen Corp. (Carlsbad, Calif.) unless otherwise noted. Compound activity at the group II (mGlu2 and mGlu3) mGlus was assessed using thallium flux through GIRK channels. Briefly, cells were plated into 384-well, black-walled, clear-bottomed poly-D-lysine-coated plates at a density of 15,000 cells/20 μL/well in DMEM containing 10% dialyzed FBS, 20 mM HEPES, and 100 units/mL penicillin/streptomycin (assay media). Plated cells were incubated overnight at 37° C. in the presence of 5% CO2. […] Cells were incubated for 1 h at room temperature, and the dye exchanged to assay buffer using an ELX405, leaving 20 μL/well. Test compounds were diluted to 2 times their final desired concentration in assay buffer (0.3% DMSO final concentration). […] Cell plates and compound plates were loaded onto a kinetic imaging plate reader (FDSS 6000 or 7000; Hamamatsu Corporation, Bridgewater, N.J.). Appropriate baseline readings were taken (10 images at 1 Hz; excitation, 470±20 nm; emission, 540±30 nm) and test compounds were added in a 20 μL volume and incubated for either 2.5 min or 60 min as indicated before the addition of 10 μL of thallium buffer with or without agonist. After the addition of agonist, data were collected for approximately an additional 2.5 min. Data were analyzed using Excel (Microsoft Corp, Redmond, Wash.). The slope of the fluorescence increase beginning 5 s after thallium/agonist addition and ending 15 s after thallium/agonist addition was calculated, corrected to vehicle and maximal agonist control slope values, and plotted in using either XLfit (ID Business Solutions Ltd) or Prism software (GraphPad Software, San Diego, Calif.) to generate concentration-response curves. Potencies were calculated from fits using a four-point parameter logistic equation. For concentration-response curve experiments, compounds were serially diluted 1:3 into 10 point concentration response curves and were transferred to daughter plates using an Echo acoustic plate reformatter (Labcyte, Sunnyvale, Calif.). Test compounds were applied and followed by EC80 concentrations of glutamate.

Row | Compound | Microsomal Stability, Percent Remaining @ 1 hour [1] | Plasma Stability, Percent Remaining @ 1 hour [2] | EC50 (mGlu2 receptor)
1 | O=C(O)c1cc(-c2cccc(-c3nc(-c4ccsc4)cc(C(F)(F)F)n3)c2)ccc1F [Example 122, 4-Fluoro-3′-(4-(thiophen-3-yl)-6-(trifluoromethyl)pyrimidin-2-yl)-[1,1′-biphenyl]-3-carboxylic Acid] | 83% | 83% | 
2 | Cc1cc2c(cc1C(F)(F)F)NC(=O)CC(c1cccc(Oc3cccc(Br)c3)c1)N2 (single isomer, unassigned) [Example 173B, 4-(3-(3-Bromophenoxy)phenyl)-7-methyl-8-(trifluoromethyl)-4,5-dihydro-1H-benzo[b][1,4]diazepin-2(3H)-one] |  |  | > 10 µM
3 | O=C(O)c1cc(-c2cccc(-c3nc(-c4ccccc4)cc(C(F)(F)F)n3)c2)ccc1F [Example 86, 4-Fluoro-3′-(4-phenyl-6-(trifluoromethyl)pyrimidin-2-yl)biphenyl-3-carboxylic Acid] | 100% | 100% | 
4 | O=C(O)c1cc(F)cc(-c2cccc(-c3csc(-c4ccccc4)n3)c2)c1 [Example 9, 5-Fluoro-3′-(2-phenylthiazol-4-yl)biphenyl-3-carboxylic Acid] | 4% | 98% | 
5 | O=C1CC(c2cccc(-c3cccnc3)c2)=Nc2ccc(Br)cc2N1 [Example 179, 8-Bromo-4-(3-(pyridin-3-yl)phenyl)-1,3-dihydro-2H-benzo[b][1,4]diazepin-2-one] | 30% | 100% | 
6 | O=C(O)c1cc(-c2cccc(-c3nsc(-c4ccccc4)n3)c2)ccc1F [Example 38, 4-Fluoro-3′-(5-phenyl-1,2,4-thiadiazol-3-yl)biphenyl-3-carboxylic Acid] | 2% | 65% | 
7 | O=C(O)c1cc(F)cc(-c2cccc(-c3nsc(-c4ccoc4)n3)c2)c1 [Example 43, 5-Fluoro-3′-(5-(furan-3-yl)-1,2,4-thiadiazol-3-yl)biphenyl-3-carboxylic Acid] | 66% | 95% | 
8 | O=C(O)c1ccc(F)c(-c2cccc(-c3nc(-c4ccoc4)cc(C(F)(F)F)n3)c2)c1 [Example 114, 6-Fluoro-3′-(4-(furan-3-yl)-6-(trifluoromethyl)pyrimidin-2-yl)biphenyl-3-carboxylic Acid] | 66% | 93% | 
9 | COc1ccc(-c2cc(C(F)(F)F)nc(-c3cccc(-c4ccc(F)c(C(=O)O)c4)c3)n2)cc1 [Example 87, 4-Fluoro-3′-(4-(4-methoxyphenyl)-6-(trifluoromethyl)pyrimidin-2-yl)biphenyl-3-carboxylic Acid] | 92% | 97% | 
10 | O=C(O)c1cc(-c2cccc(-c3csc(-c4ccccc4)n3)c2)ccc1F [Example 1, 4-Fluoro-3′-(2-phenylthiazol-4-yl)biphenyl-3-carboxylic Acid] | 3% | 93% | 
11 | O=C(O)c1cc(F)cc(-c2cccc(-c3nc(-c4ccc(C(F)(F)F)nc4)cc(C(F)(F)F)n3)c2)c1 [Example 76, 5-Fluoro-3′-(4-(trifluoromethyl)-6-(6-(trifluoromethyl)pyridin-3-yl)pyrimidin-2-yl)biphenyl-3-carboxylic Acid] | 95% | 100% | 
12 | Cc1cc2c(cc1C(F)(F)F)NC(=O)CC(c1cccc(S(=O)(=O)c3ncccn3)c1)=N2 [Example 137, 7-Methyl-4-(3-(pyrimidin-2-ylsulfonyl)phenyl)-8-(trifluoromethyl)-1H-benzo[b][1,4]diazepin-2(3H)-one] | 68% | 66% | 
13 | N#Cc1cc(C2=Nc3ccc(C(F)(F)F)cc3NC(=O)C2)ccn1 [Example 184, 4-(2-Oxo-8-(trifluoromethyl)-2,3-dihydro-1H-benzo[b][1,4]diazepin-4-yl)picolinonitrile] | 97% | 100% | 
14 | O=C(O)c1cc(F)cc(-c2cccc(-c3nc(-c4ccco4)cc(C(F)(F)F)n3)c2)c1 [Example 89, 5-Fluoro-3′-(4-(furan-2-yl)-6-(trifluoromethyl)pyrimidin-2-yl)biphenyl-3-carboxylic Acid] | 82% | 100% | 
15 | O=C(O)c1ccc(F)c(-c2cccc(-c3nc(-c4ccc(C(F)(F)F)nc4)cc(C(F)(F)F)n3)c2)c1 [Example 79, 6-Fluoro-3′-(4-(trifluoromethyl)-6-(6-(trifluoromethyl)pyridin-3-yl)pyrimidin-2-yl)biphenyl-3-carboxylic Acid] | 82% | 86% | 
16 | Cc1cc2c(cc1C(F)(F)F)NC(=O)CC(c1cccc(Oc3cccc(C(F)(F)F)c3)c1)N2 (single isomer, unassigned) [Example 172B, 7-Methyl-8-(trifluoromethyl)-4-(3-(3-(trifluoromethyl)phenoxy)phenyl)-4,5-dihydro-1H-benzo[b][1,4]diazepin-2(3H)-one] |  |  | > 10 µM
17 | Cc1cc2c(cc1C(F)(F)F)NC(=O)CC(c1cccc(Sc3ncccn3)c1)=N2 [Example 136, 7-Methyl-4-(3-(pyrimidin-2-ylthio)phenyl)-8-(trifluoromethyl)-1H-benzo[b][1,4]diazepin-2(3H)-one] | 90% | 99% | 
